Reference: PMC5696560 (Bioorganic & Medicinal Chemistry Letters, 2017)

Target: hERG channel (Homo sapiens, UniProt Q12809)
Assay: Inhibition of the hERG channel
Assay type: biochemical
Details: for IC50: studies conducted by Wuxi AppTec

Sequence of hERG channel (Q12809 whole entry): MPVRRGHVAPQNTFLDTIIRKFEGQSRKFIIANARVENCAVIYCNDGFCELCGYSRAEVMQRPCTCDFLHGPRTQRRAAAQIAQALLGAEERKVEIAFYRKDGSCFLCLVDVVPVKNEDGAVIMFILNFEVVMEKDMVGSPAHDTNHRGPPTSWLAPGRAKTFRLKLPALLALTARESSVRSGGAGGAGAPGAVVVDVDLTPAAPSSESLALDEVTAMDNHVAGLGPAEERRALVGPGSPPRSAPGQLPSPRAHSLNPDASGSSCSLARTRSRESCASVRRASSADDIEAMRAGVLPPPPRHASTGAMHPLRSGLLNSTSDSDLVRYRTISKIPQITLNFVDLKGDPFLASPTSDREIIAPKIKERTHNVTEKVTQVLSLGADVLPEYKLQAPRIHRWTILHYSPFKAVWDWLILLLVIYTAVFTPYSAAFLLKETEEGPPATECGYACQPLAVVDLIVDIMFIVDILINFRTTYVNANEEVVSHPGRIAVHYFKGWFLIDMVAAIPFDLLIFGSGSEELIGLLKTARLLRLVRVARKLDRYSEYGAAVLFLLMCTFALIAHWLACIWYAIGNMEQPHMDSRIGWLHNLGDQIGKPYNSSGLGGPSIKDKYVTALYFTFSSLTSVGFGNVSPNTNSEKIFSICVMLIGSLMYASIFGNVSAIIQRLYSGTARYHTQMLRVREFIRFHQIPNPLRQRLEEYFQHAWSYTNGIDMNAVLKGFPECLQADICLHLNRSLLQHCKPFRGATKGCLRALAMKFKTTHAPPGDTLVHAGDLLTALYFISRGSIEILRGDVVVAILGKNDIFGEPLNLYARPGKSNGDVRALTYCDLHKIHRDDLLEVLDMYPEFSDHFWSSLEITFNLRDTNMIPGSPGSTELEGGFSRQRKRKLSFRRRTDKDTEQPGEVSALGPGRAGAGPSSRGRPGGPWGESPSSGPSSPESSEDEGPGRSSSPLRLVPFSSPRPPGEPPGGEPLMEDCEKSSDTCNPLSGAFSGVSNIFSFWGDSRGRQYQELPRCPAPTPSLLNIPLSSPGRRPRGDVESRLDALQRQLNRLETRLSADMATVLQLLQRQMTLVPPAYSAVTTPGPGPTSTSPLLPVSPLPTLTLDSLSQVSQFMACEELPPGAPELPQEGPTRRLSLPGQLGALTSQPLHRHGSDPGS

Q: For `COc1nc2ccc(Br)cc2cc1[C@@H](c1ccnc(OC)c1OC)[C@@](O)(CCN(C)C)c1cccc(C)c1` [Compound 45], which IC50 is on record?
A: 0.53 µM

Q: How did the IC50 turn out when `COc1cc([C@H](c2cc3cc(Br)ccc3nc2OC)[C@@](O)(CCN(C)C)c2cccc(F)c2)cnc1OC` [Compound 43] was run?
A: 1.9 µM

Q: And the “improvement in hERG IC50 relative to 1” value (versus compound 1)?
A: 5 fold

Q: With `COc1nc2ccc(Br)cc2cc1[C@@H](c1cc(C)c(C)s1)[C@@](O)(CCN(C)C)c1cccc(F)c1` [Compound 9] as the compound, how does the IC50 read?
A: 0.88 µM
